Values of other authors in patent US5760027A, “Use of 7-alkylidene cephalosporins to inhibit elastase activity” (Research Corporation Technologies, Inc., priority 1996, dated 1998).

Tested on: b-lactamase
Settings: commercial b-lactamase inhibitors, for comparison; cited from earlier work

Structure (SMILES): O=C(O)[C@H]1/C(=C/CO)O[C@@H]2CC(=O)N21 [clavulanic acid]
- ratio at which inhibitor must be used: 200 to 1
